Measurements taken from ChEMBL document CHEMBL5303573, “Mapping human microbiome drug metabolism by gut bacteria and their genes” (Nature, 2019).

How the values were obtained:
[1] = The drug is tested on Anaerotruncus colihominis strain: DSM17241 for biotransformation. The drug concentrations were measured before and after a 12-h incubation by liquid-chromatography-coupled mass spectrometry (LC–MS); settings: 2 µM
[2] = roseburia intestinalis, 12 h, 2 µM
Description: The drug is tested on Roseburia intestinalis strain: L1-82 for biotransformation. The drug concentrations were measured before and after a 12-h incubation by liquid-chromatography-coupled mass spectrometry (LC–MS)

[3] = The drug is tested on Eubacterium rectale strain: ATCC33656 for biotransformation. The drug concentrations were measured before and after a 12-h incubation by liquid-chromatography-coupled mass spectrometry (LC–MS); settings: agathobacter rectalis, 2 µM
[4] = The drug is tested on Collinsella aerofaciens strain: ATCC25986 for biotransformation. The drug concentrations were measured before and after a 12-h incubation by liquid-chromatography-coupled mass spectrometry (LC–MS); settings: 2 µM
[5] = The drug is tested on Clostridium symbiosum strain: ATCC14940 for biotransformation. The drug concentrations were measured before and after a 12-h incubation by liquid-chromatography-coupled mass spectrometry (LC–MS); settings: 2 µM
[6] = The drug is tested on Parabacteroides merdae strain: ATCC43184 for biotransformation. The drug concentrations were measured before and after a 12-h incubation by liquid-chromatography-coupled mass spectrometry (LC–MS); settings: 2 µM
[7] = parabacteroides johnsonii, 12 h, 2 µM
Description: The drug is tested on Parabacteroides johnsonii strain: DSM18315 for biotransformation. The drug concentrations were measured before and after a 12-h incubation by liquid-chromatography-coupled mass spectrometry (LC–MS)

[8] = enterocloster bolteae, 12 h, 2 µM
Description: The drug is tested on Clostridium bolteae strain: ATCCBAA-613 for biotransformation. The drug concentrations were measured before and after a 12-h incubation by liquid-chromatography-coupled mass spectrometry (LC–MS)

[9] = The drug is tested on Escherichia coli strain: BW25113 for biotransformation. The drug concentrations were measured before and after a 12-h incubation by liquid-chromatography-coupled mass spectrometry (LC–MS); settings: 2 µM
[10] = The drug is tested on Providencia stuartii strain: ATCC25827 for biotransformation. The drug concentrations were measured before and after a 12-h incubation by liquid-chromatography-coupled mass spectrometry (LC–MS); settings: 2 µM
[11] = The drug is tested on Clostridium sporogenes strain: ATCC15579 for biotransformation. The drug concentrations were measured before and after a 12-h incubation by liquid-chromatography-coupled mass spectrometry (LC–MS); settings: 2 µM
[12] = The drug is tested on Collinsella intestinalis strain: DSM13280 for biotransformation. The drug concentrations were measured before and after a 12-h incubation by liquid-chromatography-coupled mass spectrometry (LC–MS); settings: 2 µM
[13] = bacteroides eggerthii, 12 h, 2 µM
Description: The drug is tested on Bacteroides eggerthii strain: DSM20697 for biotransformation. The drug concentrations were measured before and after a 12-h incubation by liquid-chromatography-coupled mass spectrometry (LC–MS)

[14] = The drug is tested on Edwardsiella tarda strain: ATCC23685 for biotransformation. The drug concentrations were measured before and after a 12-h incubation by liquid-chromatography-coupled mass spectrometry (LC–MS); settings: 2 µM
[15] = bacteroides fragilis, 12 h, 2 µM
Description: The drug is tested on Bacteroides fragilis strain: DS-208 for biotransformation. The drug concentrations were measured before and after a 12-h incubation by liquid-chromatography-coupled mass spectrometry (LC–MS)

[16] = limosilactobacillus reuteri cf48-3a, 12 h, 2 µM
Description: The drug is tested on Lactobacillus reuteri CF48-3A strain: BEI HM-102 for biotransformation. The drug concentrations were measured before and after a 12-h incubation by liquid-chromatography-coupled mass spectrometry (LC–MS)

[17] = The drug is tested on Blautia hansenii strain: DSM20583 for biotransformation. The drug concentrations were measured before and after a 12-h incubation by liquid-chromatography-coupled mass spectrometry (LC–MS); settings: 2 µM
[18] = The drug is tested on Bacteroides finegoldii strain: DSM17565 for biotransformation. The drug concentrations were measured before and after a 12-h incubation by liquid-chromatography-coupled mass spectrometry (LC–MS); settings: 2 µM
[19] = The drug is tested on Bacteroides pectinophilus strain: ATCC43243 for biotransformation. The drug concentrations were measured before and after a 12-h incubation by liquid-chromatography-coupled mass spectrometry (LC–MS); settings: 2 µM
[20] = victivallis vadensis, 12 h, 2 µM
Description: The drug is tested on Victivallis vadensis strain: ATCC BAA-548 for biotransformation. The drug concentrations were measured before and after a 12-h incubation by liquid-chromatography-coupled mass spectrometry (LC–MS)

Compound	Bacterial Biotransformation [1]	Bacterial Biotransformation [2]	Bacterial Biotransformation [3]	Bacterial Biotransformation [4]	Bacterial Biotransformation [5]	Bacterial Biotransformation [6]	Bacterial Biotransformation [7]	Bacterial Biotransformation [8]	Bacterial Biotransformation [9]	Bacterial Biotransformation [10]	Bacterial Biotransformation [11]	Bacterial Biotransformation [12]	Bacterial Biotransformation [13]	Bacterial Biotransformation [14]	Bacterial Biotransformation [15]	Bacterial Biotransformation [16]	Bacterial Biotransformation [17]	Bacterial Biotransformation [18]	Bacterial Biotransformation [19]	Bacterial Biotransformation [20]
COc1ccnc(C[S+]([O-])c2nc3ccc(OC(F)F)cc3[nH]2)c1OC (stereo not given) [PANTOPRAZOLE]	Compound metabolized	Compound metabolized	Compound metabolized	Compound metabolized	Compound metabolized	Compound metabolized	Compound metabolized	Compound metabolized	Compound metabolized	Compound metabolized	Compound metabolized	Compound metabolized	Compound metabolized	Compound metabolized	Compound metabolized	Compound metabolized	Compound metabolized	Compound metabolized	Compound metabolized	Compound metabolized
CCN(CC)CCOCCOC(=O)C1(c2ccccc2)CCCC1.O=C(O)CC(O)(CC(=O)O)C(=O)O [CARBETAPENTANE CITRATE]	Compound metabolized	Compound metabolized	Compound NOT metabolized	Compound metabolized	Compound metabolized	Compound metabolized	Compound metabolized	Compound metabolized	Compound metabolized	Compound metabolized	Compound metabolized	Compound metabolized	Compound metabolized	Compound metabolized	Compound metabolized	Compound metabolized	Compound metabolized	Compound metabolized	Compound metabolized	Compound metabolized
CCN(CC)C(=O)/C(C#N)=C/c1cc(O)c(O)c([N+](=O)[O-])c1 [ENTACAPONE]	Compound metabolized	Compound metabolized	Compound metabolized	Compound metabolized	Compound metabolized	Compound metabolized	Compound metabolized	Compound metabolized	Compound metabolized	Compound metabolized	Compound metabolized	Compound metabolized	Compound metabolized	Compound metabolized	Compound metabolized	Compound metabolized	Compound metabolized	Compound metabolized	Compound metabolized	Compound metabolized
CC(Oc1c(Cl)cccc1Cl)C1=NCCN1 (stereo not given) [LOFEXIDINE]	Compound metabolized	Compound metabolized	Compound metabolized	Compound metabolized	Compound metabolized	Compound metabolized	Compound metabolized	Compound metabolized	Compound metabolized	Compound metabolized	Compound metabolized	Compound NOT metabolized	Compound metabolized	Compound metabolized	Compound NOT metabolized	Compound metabolized	Compound metabolized	Compound metabolized	Compound metabolized	Compound metabolized
